Test results from patent US8592420B2, “Method of treating an anxiety disorder” (Kyowa Hakko Kirin Co., Ltd., priority 2003, dated 2013).

What was measured:
Assay type in all cases: in vivo
Mice [1] = test: Hole-Board Test in the mouse (Test Example 1)
Method: The method followed that described in Arch. Int. Pharmacodyn. Ther., 147, 372-387 (1964) with a slight modification.
Mice were individually placed on a square board (35×35 cm) raised 60 cm above the floor, containing 16 equally spaced holes (25 mm diameter). The number of head-dips occurring during a 5 minute test was counted.
(§1) The test compound or vehicle was administered orally 60 minutes before the test.
Data were analyzed by comparing the result of a tested group with that of a vehicle control group using an unpaired Student's t-test.

Mice [2] = test: Marble Burying Test in the mouse (Test Example 2)
Method: (§2) The method followed that described in Eur. J. Pharmacol., 126, 223-229 (1986) with a slight modification.
(§3) Mice exposed to a novel object (marbles) tend to bury them in the sawdust floor covering.
(§4) Mice were individually placed in transparent plastic cages with 25 colored marbles (diameter 1.5 cm) on 5 cm of the sawdust floor. The cage was covered with a similar cage upturned.
(§5) The number of marbles covered by sawdust (50% or more) was counted at the end of a 30 minute test.
as §1
Data were analyzed by comparing the result of treated groups with that of a vehicle control group using an unpaired Student's t-test.

rat [3] = test: Learned Helplessness in the rat (Test Example 3); conditions: FIG. 1, single treatment p.o. 60 min before test
Method: The method followed that described in J. Exp. Psychol., 74, 1-9 (1967) with a slight modification.
Preconditioning with inescapable electric foot shock was given individually to each rat in the shuttle box on day 1. A constant current (1.3 mA) shock generator delivered scrambled, inescapable shocks to the grid floor during 50 minute preconditioning period. Control rats were also individually placed in the identical chamber for 50 minutes, but shock was not given. Conditioned avoidance training session (FR1: buzzer 10 seconds, 0.6 mA foot shock; 5 seconds, interval time; 10 seconds/trial, 15 escape trials) and test session (FR2: 0.6 mA foot shock; 10 seconds, interval time; 0.5 seconds, 0.6 mA foot shock; 10 seconds, interval time; 15 seconds/trial, 15 trials) were performed on day 2 consecutively. FR1 session consisted of 15 trials during which a single shuttle response terminated shock and rats learned how to escape shocks. Subsequent FR2 session consisted of 15 trials during which each rat had to cross from one side of the shuttle box to the other and then crossed back to terminate shock. […]
The ratio of escape response was calculated from the following formula. […]
The ratio of intertrial response is calculated from the following formula. […]
Data were analyzed by comparing the result of a tested group with that of a vehicle control group using a Steel test.

rat [4] = test: Elevated Plus-Maze Test in the rat (Test Example 4)
Method: (§6) The method followed that described in Naunyn. Schmied. Arch. Pharmacol., 327, 1-5 (1984) with a slight modification.
(§7) The maze consisted of 4 arms of equal length and width (50×10 cm) arranged in the form of a plus sign (+). Two opposite arms were enclosed by 40 cm high walls (closed arms). The 2 other arms had no walls (open arms). The maze was raised 50 cm above the floor. A rat was placed in the center of the plus-maze and left to explore for 5 minutes. The number of entries into the open and closed arms and the time spent in the open arms was recorded.
The test compound or vehicle was administered orally 60 minutes before the test, respectively.
(§8) Data were analyzed by comparing the result of a treated group with that of a vehicle control group using an unpaired Student's t-test.

male rats = test: Social Interaction Test in the rat (Test Example 5)
Method: The method followed that described in Br. J. Pharmacol., 62, 19-24 (1978) with a slight modification.
A pair of male rats were placed in opposite corners of an open-topped arena (50×50×50 cm) and allowed to interact with each other. The time spent in active social interaction (i.e. sniffing, following, grooming, mounting, crawling under or over the partner) was recorded for a 10 minute session.
The test compound or vehicle was administered orally 60 minutes before the test, with each rat of the same pair receiving the same treatment.
Data were analyzed by comparing the result of a treated group with that of a vehicle control group using an unpaired Student's t-tests.

Mice [5] = test: Marble Burying Test in the mouse, adjunctive treatment with buspirone or fluoxetine (Test Example 7); conditions: for NUMBER OF MARBLES COVERED BY SAWDUST % change from control / NUMBER OF MARBLES COVERED BY SAWDUST mean ± s.e.m.: Table 5; for NUMBER OF MARBLES COVERED BY SAWDUST mean ± s.e.m.: 60 min before test, vehicle 17.1 ± 1.6; for effect of single administration on number of marbles covered by sawdust: single administration: Compound A 1 mg/kg, buspirone 15 mg/kg, fluoxetine 20 mg/kg, po
Method: as §2, §3, §4, §5
The test compound or vehicle was administered orally 60 minutes before the test either alone or in combination with buspirone or fluoxetine.
as §8

rat [6] = test: Elevated Plus-Maze Test in the rat, adjunctive treatment with alprazolam (Test Example 8); conditions: for OPEN ARMS NUMBER OF ENTRIES % change from control / OPEN ARMS TIME SPENT % change from control / OPEN ARMS NUMBER OF ENTRIES mean ± s.e.m. / OPEN ARMS TIME SPENT (sec) mean ± s.e.m.: Table 6; for OPEN ARMS NUMBER OF ENTRIES % change from control / OPEN ARMS TIME SPENT % change from control: single compound 1 mg/kg po; for OPEN ARMS NUMBER OF ENTRIES mean ± s.e.m. / OPEN ARMS TIME SPENT (sec) mean ± s.e.m.: single compound 1 mg/kg po 60 min before test; for OPEN ARMS NUMBER OF ENTRIES mean ± s.e.m.: vehicle 2.3 ± 0.6; for OPEN ARMS TIME SPENT (sec) mean ± s.e.m.: vehicle 37.4 ± 9.5; for effect alone on open arm entries and time spent in open arms: alone at 1 mg/kg po
Method: as §6, §7
The test compound or vehicle was administered orally 60 minutes before the test either alone or in combination with alprazolam.
as §8

Male Wistar rats = test: Vogel Conflict Test in the rat (Test Example 10); conditions: Table 7; 1 mg/kg po 60 min before test; 5 minutes punished session; vehicle 4.8 ± 1.3 (for C), 5.7 ± 0.8 (for D)
Method: The method followed that described in Psychopharmacol., 21, 1-7 (1971) with a slight modification. Male Wistar rats (160-200 g) were deprived of water for 48 hours prior to test session consisting of a 5 minutes period. Each rat was then placed in a test box (25×30×25 cm). The rat was allowed to explore the drinking spout to drink water. When the rat drinks a drip of water, the electric shock (0.16 mA, duration of 0.2 seconds) was delivered from the floor grid. […] The test compound or a vehicle was administered orally 60 minutes before the test, respectively. Data were analyzed by comparing the result of a tested group with that of a vehicle control group using an unpaired Student's t-test.

Structure (SMILES): CCn1c(=O)c2c(nc(/C=C/c3ccc(OC)c(OC)c3)n2C)n(CC)c1=O [Compound A, (E)-8-(3,4-dimethoxystyryl)-1,3-diethyl-7-methylxanthine]
- NUMBER OF HEAD-DIPS mean ± s.e.m. (Mice [1]; Table 1-A, 3 mg/kg p.o. 60 min before test, 5 minute test, vehicle 28.6 ± 2.4): 46.7 ± 3.2
- NUMBER OF ENTRIES INTO THE 4 QUADRANTS mean ± s.e.m. (Mice [1]; Table 1-A, 3 mg/kg p.o. 60 min before test, vehicle 12.7 ± 0.8): 24.4 ± 1.7
- NUMBER OF MARBLES COVERED BY SAWDUST % change from control (Mice [2]; Table 2-A, 3 mg/kg p.o. 60 min before test): −50%
- NUMBER OF MARBLES COVERED BY SAWDUST mean ± s.e.m. (Mice [2]; Table 2-A, 3 mg/kg p.o. 60 min before test, 30 minute test, 25 marbles, vehicle 20.9 ± 1.4): 10.5 ± 2.9
- escape failure (ratio of escape response, FR2 trial) (rat [3]; 1.25 mg/kg and more): dose-dependently reversed the escape failure
- intertrial crossings (ratio of intertrial response, FR2 trial) (rat [3]): did not increase intertrial crossings
- OPEN ARMS NUMBER OF ENTRIES mean ± s.e.m. (rat [4]; Table 3-A, 3 mg/kg po 60 min before test, 5 minutes, vehicle 1.9 ± 0.3): 5.4 ± 0.7
- OPEN ARMS TIME SPENT (sec) mean ± s.e.m. (rat [4]; Table 3-A, 3 mg/kg po 60 min before test, vehicle 38.9 ± 7.7): 143 ± 20.9 s
- TIME SPENT IN ACTIVE SOCIAL INTERACTION (sec) mean ± s.e.m. (male rats; Table 4-A, 3 mg/kg po 60 min before test, 10 minute session, vehicle 97.5 ± 8.7): 153 ± 11.2 s
- NUMBER OF MARBLES COVERED BY SAWDUST % change from control (Mice [5]; Compound A 1 mg/kg po alone): −18%
- NUMBER OF MARBLES COVERED BY SAWDUST mean ± s.e.m. (Mice [5]; Compound A 1 mg/kg po alone): 14.1 ± 1.6
- effect of single administration on number of marbles covered by sawdust (Mice [5]): no significant effects
- OPEN ARMS NUMBER OF ENTRIES % change from control (rat [6]): +65%
- OPEN ARMS TIME SPENT % change from control (rat [6]): +48%
- OPEN ARMS NUMBER OF ENTRIES mean ± s.e.m. (rat [6]): 3.8 ± 0.8
- OPEN ARMS TIME SPENT (sec) mean ± s.e.m. (rat [6]): 55.2 ± 12.1 s
- effect alone on open arm entries and time spent in open arms (rat [6]): moderate effect

Structure (SMILES): COc1cc(/C=C/c2nc3c(c(=O)n(C)c(=O)n3C)n2C)cc(OC)c1OC [Compound B, (E)-1,3,7-trimethyl-8-(3,4,5-trimethoxystyryl)xanthine]
- NUMBER OF HEAD-DIPS mean ± s.e.m. (Mice [1]; Table 1-B, 3 mg/kg p.o. 60 min before test, vehicle 30.2 ± 3.9): 43.9 ± 4.2
- NUMBER OF MARBLES COVERED BY SAWDUST % change from control (Mice [2]; Table 2-B, 3 mg/kg p.o. 60 min before test): −55%
- NUMBER OF MARBLES COVERED BY SAWDUST mean ± s.e.m. (Mice [2]; Table 2-B, 3 mg/kg p.o. 60 min before test, vehicle 20.6 ± 1.1): 9.3 ± 1.9
- OPEN ARMS NUMBER OF ENTRIES mean ± s.e.m. (rat [4]; Table 3-B, 1 mg/kg po 60 min before test, vehicle 1.8 ± 0.8): 5.8 ± 0.8
- OPEN ARMS TIME SPENT (sec) mean ± s.e.m. (rat [4]; Table 3-B, 1 mg/kg po 60 min before test, vehicle 15.6 ± 8.1): 94.4 ± 15.2 s
- TIME SPENT IN ACTIVE SOCIAL INTERACTION (sec) mean ± s.e.m. (male rats; Table 4-B, 3 mg/kg po 60 min before test, vehicle 89.0 ± 5.7): 141 ± 6.8 s

Structure (SMILES): CC(C)(O)CCN1CCN(c2cc3nc(-c4ccco4)nn3c(N)n2)CC1 [Compound C, 5-amino-2-(2-furyl)-7-[4-(3-hydroxy-3-methylbutyl)piperazinyl][1,2,4]triazolo[1,5-c]pyrimidine]
- NUMBER OF HEAD-DIPS mean ± s.e.m. (Mice [1]; Table 1-C, 10 mg/kg p.o. 60 min before test, vehicle 30.2 ± 3.9): 46.9 ± 3.4
- NUMBER OF MARBLES COVERED BY SAWDUST % change from control (Mice [2]; Table 2-C, 10 mg/kg p.o. 60 min before test, p 0.08): −17%
- NUMBER OF MARBLES COVERED BY SAWDUST mean ± s.e.m. (Mice [2]; Table 2-C, 10 mg/kg p.o. 60 min before test, vehicle 20.9 ± 1.1, p 0.08): 17.0 ± 1.6
- OPEN ARMS NUMBER OF ENTRIES mean ± s.e.m. (rat [4]; Table 3-C, 30 mg/kg po 60 min before test, vehicle 2.3 ± 0.5, p 0.0503): 4.2 ± 0.8
- OPEN ARMS TIME SPENT (sec) mean ± s.e.m. (rat [4]; Table 3-C, 30 mg/kg po 60 min before test, vehicle 26.4 ± 6.6): 55.2 ± 10.7 s
- TIME SPENT IN ACTIVE SOCIAL INTERACTION (sec) mean ± s.e.m. (male rats; Table 4-C, 30 mg/kg po 60 min before test, vehicle 96.2 ± 8.2): 130 ± 9.7 s
- NUMBER OF SHOCKS mean ± s.e.m (Male Wistar rats): 10.5 ± 2.1

Structure (SMILES): COCCOc1ccc(N2CCN(CCn3ncc4c3nc(N)n3nc(-c5ccco5)nc43)CC2)cc1 [Compound D, 5-amino-2-(2-furyl)-7-(2-{4-[4-(2-methoxyethoxy)phenyl]piperazinyl}ethyl)pyrazolo[4,3-e]-1,2,4-triazolo[1,5-c]pyrimidine]
- NUMBER OF SHOCKS mean ± s.e.m (Male Wistar rats): 10.8 ± 1.6

Structure (SMILES): Cc1nnc2n1-c1ccc(Cl)cc1C(c1ccccc1)=NC2 [alprazolam, reference compound]
- OPEN ARMS NUMBER OF ENTRIES % change from control (rat [6]): +91%
- OPEN ARMS TIME SPENT % change from control (rat [6]): +53%
- OPEN ARMS NUMBER OF ENTRIES mean ± s.e.m. (rat [6]): 4.4 ± 0.9
- OPEN ARMS TIME SPENT (sec) mean ± s.e.m. (rat [6]): 57.3 ± 12.8 s
- effect alone on open arm entries and time spent in open arms (rat [6]): moderate effect

Structure (SMILES): O=C1CC2(CCCC2)CC(=O)N1CCCCN1CCN(c2ncccn2)CC1 [buspirone]
- NUMBER OF MARBLES COVERED BY SAWDUST % change from control (Mice [5]; buspirone 15 mg/kg po alone): −26%
- NUMBER OF MARBLES COVERED BY SAWDUST mean ± s.e.m. (Mice [5]; buspirone 15 mg/kg po alone): 12.7 ± 1.8
- effect of single administration on number of marbles covered by sawdust (Mice [5]): no significant effects

Structure (SMILES): CNCCC(Oc1ccc(C(F)(F)F)cc1)c1ccccc1 (stereo not drawn) [fluoxetine]
- NUMBER OF MARBLES COVERED BY SAWDUST % change from control (Mice [5]; fluoxetine 20 mg/kg po alone): −20%
- NUMBER OF MARBLES COVERED BY SAWDUST mean ± s.e.m. (Mice [5]; fluoxetine 20 mg/kg po alone): 13.6 ± 2.5
- effect of single administration on number of marbles covered by sawdust (Mice [5]): no significant effects
